Measured values: patent publication US20060003016A1, “Therapeutic method for endolymphatic hydrops associated diseases” (priority 2004, published 2006)
Read-outs that look alike come from different tables or passages of the source.

Test system: patients with Meniere's disease
Excerpt: In the present case who could be followed up for more than 24 months after treatment with water intake, the therapeutic effect was judged by using the criteria of AAO-HNS (1995)^14), 15). Proviso that in an examination on changes of the hearing, although the criteria in the four-frequency pure-tone averages (PTA) of AAO-HNS (1995)^14) adopted mean values of the hearing levels consisting of 500 Hz, 1000 Hz, 2000 Hz and 3000 Hz, in our case, the value of 4000 Hz was used in stead of that of 3000 Hz.
Therapeutic effect for vertigo^14), 15) was calculated according to the following equation. [formula]
Namely, in the present case, vertiginous attack in 6 months during 18 months-24 months after the treatment was 0 time, and average numbers of rotatory vertigo per month for 6 months before the treatment were 2 times (i.e. onset in Mar. 5, 2000 and Jul. 22, 2000 within 6 months before Aug. 5, 2000). Consequently, applying the above equation: [formula] […] Clinical Case 4 Low Frequency Sensorineural Hearing Loss of the Right Ear

O [water intake, water]
category of therapeutic effect for vertigo, AAO-HNS criteria (case 3, water intake): complete control
vertiginous attack in 6 months during 18 months-24 months after the treatment (case 3, water intake, 2 times in 6 months before): 0 time
category of therapeutic effect for vertigo, AAO-HNS criteria (case 6, water intake): complete control
vertiginous attack in 6 months during 18 months-24 months after the treatment (case 6, water intake, 4 times estimated in 6 months before): 0 time
category of therapeutic effect for vertigo, AAO-HNS criteria (case 7, water intake): complete control
vertiginous attack in 6 months during 18 months-24 months after the treatment (case 7, water intake, 0 time in 6 months before): 0 time
category of therapeutic effect for vertigo, AAO-HNS criteria (case 8, water intake): complete control
vertiginous attack in 6 months during 18 months-24 months after the treatment (case 8, water intake, 1 in 6 months before): 0 time
